# Experimental data published in patent US9238039B2, “Pyrazolo[1,5-A]pyrimidines for antiviral treatment” (Gilead Sciences, Inc., priority 2010, dated 2016).
# System: RSV strain A2
# Test: RSV antiviral cytoprotection assay in Hep2 cells (96-well and 384-well format, Cell TiterGlo read-out)
# Assay type: cell-based, Respiratory Syncytial Virus (RSV)
# Settings: human respiratory syncytial virus; for inhibition at 0.5 µM: HEp-2, 0.5 uM, RSV-induced cytopathic effect in Hep2 cells, calculated from fitted dose response curve, normalized to 0% and 100%; for EC50: HEp-2, RSV-induced cytopathic effects, Hep2 cells, class symbols
EC50,Structure (SMILES),inhibition at 0.5 µM
0.1 to 100 nM,Cc1cc(C2CC2)nc2cc([C@@H]3CCCCN3C(=O)C(NS(C)(=O)=O)c3ccccc3)nn12 (some centres unmarked) [Compound 241],99%
0.1 to 100 nM,Cc1cn2nc([C@@H]3CCCCN3C(=O)c3cc(Cl)ccc3NS(C)(=O)=O)cc2nc1N1CC(OP(=O)(O)O)C1 [Compound 244],88%
0.1 to 100 nM,CS(=O)(=O)Nc1ccc(Cl)cc1C(=O)N1CCCC[C@H]1c1cc2nc(NCCO)cc(N3CCOCC3)n2n1 [Compound 247],94%
0.1 to 100 nM,CC(=O)Nc1ccc(Cl)cc1C(=O)N1CCCC[C@H]1c1cc2nc(N3CC(N)C3)c(C)cn2n1 [Compound 248],100%
0.1 to 100 nM,Cc1cn2nc([C@@H]3CCCCN3C(=O)c3cc(Cl)ccc3NC(=O)OC(C)C)cc2nc1N1CC[C@H](N)C1 [Compound 249],86%
0.1 to 100 nM,Cc1cn2nc([C@@H]3CCCCN3C(=O)c3cc(Cl)ccc3NS(C)(=O)=O)cc2nc1N1CC(N)C(F)C1 (some centres unmarked) [Compound 250],90%
101 to 1000 nM,Cc1ccc(NS(C)(=O)=O)c(C(=O)N2CCC(C(F)(F)F)CC2c2cc3[nH]c(C)c(C)c(=O)n3n2)c1 (centres unmarked) [Compound 251],73%
0.1 to 100 nM,CS(=O)(=O)Nc1ccc(Cl)cc1C(=O)N1CCCC[C@H]1c1cc2nc(N3CCC3)cc(CO)n2n1 [Compound 254],90%
0.1 to 100 nM,CS(=O)(=O)Nc1ccc(Cl)cc1C(=O)N1CCCC[C@H]1c1cc2nc(N3CCC3)cc(CN3CCOCC3)n2n1 [Compound 256],87%
0.1 to 100 nM,Cc1cn2nc([C@@H]3CCCCN3C(=O)c3ccco3)cc2nc1N1CC[C@H](N)C1 [Compound 258],100%
1000 to 10000 nM,Cc1cn2nc([C@@H]3CCCCN3C(=O)c3cnco3)cc2nc1N1CC[C@H](N)C1 [Compound 259],28%
0.1 to 100 nM,Cc1cn2nc([C@@H]3CCCCN3C(=O)c3cnccn3)cc2nc1N1CC[C@H](N)C1 [Compound 260],99%
101 to 1000 nM,Cc1cn2nc([C@@H]3CCCCN3C(=O)c3cccn3C)cc2nc1N1CC[C@H](N)C1 [Compound 261],81%
0.1 to 100 nM,Cc1cc(C(=O)N2CCCC[C@H]2c2cc3nc(N4CC[C@H](N)C4)c(C)cn3n2)[nH]n1 [Compound 262],100%
0.1 to 100 nM,Cc1cn2nc([C@@H]3CCCCN3C(=O)c3ccnn3C)cc2nc1N1CC[C@H](N)C1 [Compound 263],99%
101 to 1000 nM,Cc1cc(C(=O)N2CCCC[C@H]2c2cc3nc(N4CC[C@H](N)C4)c(C)cn3n2)no1 [Compound 264],53%
0.1 to 100 nM,Cc1cn2nc([C@@H]3CCCCN3C(=O)c3ocnc3C)cc2nc1N1CC[C@H](N)C1 [Compound 265],100%
0.1 to 100 nM,Cc1cc(C(=O)N2CCCC[C@H]2c2cc3nc(N4CC[C@H](N)C4)c(C)cn3n2)on1 [Compound 266],100%
0.1 to 100 nM,Cc1cn2nc([C@@H]3CCCCN3C(=O)c3ccsc3)cc2nc1N1CC[C@H](N)C1 [Compound 267],99%
101 to 1000 nM,Cc1cn2nc([C@@H]3CCCCN3C(=O)c3nccs3)cc2nc1N1CC[C@H](N)C1 [Compound 268],76%
0.1 to 100 nM,Cc1cn2nc([C@@H]3CCCCN3C(=O)c3cncs3)cc2nc1N1CC[C@H](N)C1 [Compound 269],90%
101 to 1000 nM,Cc1cn2nc([C@@H]3CCCCN3C(=O)c3cscn3)cc2nc1N1CC[C@H](N)C1 [Compound 270],82%
0.1 to 100 nM,Cc1cn2nc([C@@H]3CCCCN3C(=O)c3csnn3)cc2nc1N1CC[C@H](N)C1 [Compound 271],97%
0.1 to 100 nM,Cc1ccnc(C(=O)N2CCCC[C@H]2c2cc3nc(N4CC[C@H](N)C4)c(C)cn3n2)c1 [Compound 272],100%
0.1 to 100 nM,Cc1cccc(C(=O)N2CCCC[C@H]2c2cc3nc(N4CC[C@H](N)C4)c(C)cn3n2)n1 [Compound 273],100%
0.1 to 100 nM,Cc1cn2nc([C@@H]3CCCCN3C(=O)c3ccccc3O)cc2nc1N1CC[C@H](N)C1 [Compound 274],100%
0.1 to 100 nM,Cc1cn2nc([C@@H]3CCCCN3C(=O)c3cccnc3N)cc2nc1N1CC[C@H](N)C1 [Compound 275],100%

EC50,Structure (SMILES),inhibition at 0.5 µM
101 to 1000 nM,Cc1cn2nc([C@@H]3CCCCN3C(=O)c3cncnc3N)cc2nc1N1CC[C@H](N)C1 [Compound 276],90%
0.1 to 100 nM,Cc1cn2nc([C@@H]3CCCCN3C(=O)c3ccccc3F)cc2nc1N1CC[C@H](N)C1 [Compound 277],98%
0.1 to 100 nM,CCn1nccc1C(=O)N1CCCC[C@H]1c1cc2nc(N3CC[C@H](N)C3)c(C)cn2n1 [Compound 278],99%
101 to 1000 nM,Cc1cn2nc([C@@H]3CCCCN3C(=O)c3cnn(C)c3C)cc2nc1N1CC[C@H](N)C1 [Compound 279],63%
101 to 1000 nM,Cc1cn2nc([C@@H]3CCCCN3C(=O)c3cc(C)n(C)n3)cc2nc1N1CC[C@H](N)C1 [Compound 280],60%
101 to 1000 nM,CCn1cc(C(=O)N2CCCC[C@H]2c2cc3nc(N4CC[C@H](N)C4)c(C)cn3n2)cn1 [Compound 281],37%
0.1 to 100 nM,Cc1cn2nc([C@@H]3CCCCN3C(=O)c3cccnc3F)cc2nc1N1CC[C@H](N)C1 [Compound 282],100%
0.1 to 100 nM,Cc1cn2nc([C@@H]3CCCCN3C(=O)c3onc(C)c3C)cc2nc1N1CC[C@H](N)C1 [Compound 283],99.8%
0.1 to 100 nM,CCc1ocnc1C(=O)N1CCCC[C@H]1c1cc2nc(N3CC[C@H](N)C3)c(C)cn2n1 [Compound 284],97.8%
0.1 to 100 nM,Cc1cn2nc([C@@H]3CCCCN3C(=O)c3nnn(C)c3C)cc2nc1N1CC[C@H](N)C1 [Compound 285],100%
0.1 to 100 nM,Cc1ccc(C(=O)N2CCCC[C@H]2c2cc3nc(N4CC[C@H](N)C4)c(C)cn3n2)s1 [Compound 286],100%
1000 to 10000 nM,Cc1cn2nc([C@@H]3CCCCN3C(=O)c3scnc3C)cc2nc1N1CC[C@H](N)C1 [Compound 287],
0.1 to 100 nM,Cc1nc(C(=O)N2CCCC[C@H]2c2cc3nc(N4CC[C@H](N)C4)c(C)cn3n2)cs1 [Compound 288],100%
0.1 to 100 nM,C#Cc1cccc(C(=O)N2CCCC[C@H]2c2cc3nc(N4CC[C@H](N)C4)c(C)cn3n2)c1 [Compound 289],100%
0.1 to 100 nM,Cc1cn2nc([C@@H]3CCCCN3C(=O)c3ccc(C#N)cn3)cc2nc1N1CC[C@H](N)C1 [Compound 290],
0.1 to 100 nM,Cc1cn2nc([C@@H]3CCCCN3C(=O)c3ccccc3CO)cc2nc1N1CC[C@H](N)C1 [Compound 291],88%
101 to 1000 nM,Cc1ccc(O)cc1C(=O)N1CCCC[C@H]1c1cc2nc(N3CC[C@H](N)C3)c(C)cn2n1 [Compound 292],59%
101 to 1000 nM,Cc1ccc(C(=O)N2CCCC[C@H]2c2cc3nc(N4CC[C@H](N)C4)c(C)cn3n2)c(O)c1 [Compound 293],64%
1000 to 10000 nM,Cc1ccc(C(=O)N2CCCC[C@H]2c2cc3nc(N4CC[C@H](N)C4)c(C)cn3n2)cc1O [Compound 294],14%
0.1 to 100 nM,COc1cccc(C(=O)N2CCCC[C@H]2c2cc3nc(N4CC[C@H](N)C4)c(C)cn3n2)c1 [Compound 295],97%
101 to 1000 nM,Cc1cn2nc([C@@H]3CCCCN3C(=O)c3n[nH]c4c3CCC4)cc2nc1N1CC[C@H](N)C1 [Compound 296],49%
0.1 to 100 nM,Cc1cn2nc([C@@H]3CCCCN3C(=O)c3cc(C4CC4)[nH]n3)cc2nc1N1CC[C@H](N)C1 [Compound 297],95%
101 to 1000 nM,Cc1ccc(C(=O)N2CCCC[C@H]2c2cc3nc(N4CC[C@H](N)C4)c(C)cn3n2)c(F)c1 [Compound 298],21%
0.1 to 100 nM,CCCn1nccc1C(=O)N1CCCC[C@H]1c1cc2nc(N3CC[C@H](N)C3)c(C)cn2n1 [Compound 300],99%
0.1 to 100 nM,CCn1nc(C(=O)N2CCCC[C@H]2c2cc3nc(N4CC[C@H](N)C4)c(C)cn3n2)cc1C [Compound 301],100%
0.1 to 100 nM,CCn1nc(C)cc1C(=O)N1CCCC[C@H]1c1cc2nc(N3CC[C@H](N)C3)c(C)cn2n1 [Compound 302],100%
0.1 to 100 nM,CCc1cc(C(=O)N2CCCC[C@H]2c2cc3nc(N4CC[C@H](N)C4)c(C)cn3n2)n(C)n1 [Compound 303],100%

Structure (SMILES),EC50,inhibition at 0.5 µM
Cc1cc(C2CC2)nc2cc([C@@H]3CCCCN3C(=O)C(NC(=O)OC(C)(C)C)c3ccccc3)nn12 (some centres unmarked) [Compound 242],101 to 1000 nM,72%
CC(=O)Nc1c(Cl)ccc(Cl)c1C(=O)N1CCCC[C@H]1c1cc2[nH]c(C)c(C)c(=O)n2n1 [Compound 245],0.1 to 100 nM,92%
CC(=O)Nc1c(Cl)cc(C)cc1C(=O)N1CCCC[C@H]1c1cc2nc(C)c(C)c(N(C)C)n2n1 [Compound 246],0.1 to 100 nM,98%
CS(=O)(=O)Nc1ccc(Cl)cc1C(=O)N1CCCC[C@H]1c1cc2nc(N3CCC3)cc(N3CCCCN3)n2n1 [Compound 252],0.1 to 100 nM,92%
CS(=O)(=O)Nc1ccc(Cl)cc1C(=O)N1CCCC[C@H]1c1cc2nc(N3CCC3)cc(N3CCN[C@@H](C(F)F)C3)n2n1 [Compound 253],0.1 to 100 nM,88%
